Assay results reported in patent US4371537A, “Sulfur-substituted phenoxypyridines having antiviral activity” (The Dow Chemical Company, priority 1981, dated 1983).
≈ marks a conversion by molar mass, not a printed value.

Experiments:
[1] = Cytotoxicity in tissue culture testing (HeLa monolayers); type: cell-based; conditions: human; HeLa cells; observed at 48 and 72 hours post-treatment; read-out: Cytotoxicity: concentration of the compound found to be toxic to the cell
Description: (§1) Monolayered HeLa cells in 16 millimeter (mm) tissue culture dishes were treated with 1 ml of culture medium (Eagles medium supplemented with fetal calf serum) containing subject compound at an appropriate concentration or containing no compound at all. Culture media such as those described herein are more fully described in standard texts, as for example, Kuchler's Biochemical Methods in Cell Culture and Virology, Dowden, Hutchinson and Ross, Inc., Stroudsberg, PA (1977). Following treatment, cells were challenged with 0.05 ml of rhinovirus type 1A (RV-1A), rhinovirus type 2 (RV-2) or Coxsackie A21 virus (Cox A21) in culture medium. Some of the compounds were also tested against rhinovirus type 5 (RV-5), rhinovirus type 8 (RV-8) or rhinovirus type 64 (RV-64). Cell controls received no viruses.
^1 Cytotoxicity figures represent the concentration of the compound, […]

[2] = tested on: rhinovirus type 1A (RV-1A); assay: Tissue culture testing, rhinovirus type 1A in HeLa cells; type: cell-based; conditions: Enterovirus, 48 and 72 hours, NA = not active at the standard test conditions, read-out: RV-1A: lowest concentration of the compound necessary to cause a 50 percent reduction in cytopathic effect
Description: as §1
(§2) ^2 Lowest concentration of the compound (μg/ml) necessary to cause

[3] = tested on: rhinovirus type 2 (RV-2); assay: Tissue culture testing, rhinovirus type 2 in HeLa cells; type: cell-based; conditions: Enterovirus, 48 and 72 hours, NA = not active at the standard test conditions, read-out: RV-2: lowest concentration of the compound necessary to cause a 50 percent reduction in cytopathic effect
Description: as §1, §2

[4] = tested on: Coxsackie A21 virus (Cox A21); assay: Tissue culture testing, Coxsackie A21 virus in HeLa cells; type: cell-based; conditions: 48 and 72 hours, NA = not active at the standard test conditions, read-out: Cox A21: lowest concentration of the compound necessary to cause a 50 percent reduction in cytopathic effect
Description: as §1, §2

[5] = tested on: rhinovirus type 5 (RV-5); assay: Tissue culture testing, rhinovirus type 5 in HeLa cells; type: cell-based; conditions: Enterovirus, 48 and 72 hours, NA = not active at the standard test conditions, read-out: RV-5: lowest concentration of the compound necessary to cause a 50 percent reduction in cytopathic effect
Description: as §1, §2

[6] = tested on: rhinovirus type 8 (RV-8); assay: Tissue culture testing, rhinovirus type 8 in HeLa cells; type: cell-based; conditions: Enterovirus, 48 and 72 hours, NA = not active at the standard test conditions, read-out: RV-8: lowest concentration of the compound necessary to cause a 50 percent reduction in cytopathic effect
Description: as §1, §2

[7] = tested on: rhinovirus type 64 (RV-64); assay: Tissue culture testing, rhinovirus type 64 in HeLa cells; type: cell-based; conditions: Enterovirus, 48 and 72 hours, NA = not active at the standard test conditions, read-out: RV-64: lowest concentration of the compound necessary to cause a 50 percent reduction in cytopathic effect
Description: as §1, §2

[8] = tested on: Cox A21; assay: Single Oral Dose test in mice challenged IP with Cox A21; type: in vivo, Swiss male mice; conditions: 600 mg/kg P.O. 3 h after IP challenge; >3.84 significant (95% confidence level)
Description: In addition, some of the compounds were tested in animals utilizing the following procedure, hereinafter referred to as the "Single Oral Dose" test. Swiss male mice, 8-12 grams in weight were challenged intraperitoneally (IP) with 0.2 ml of a normally lethal dose, i.e., a virus dose sufficient to cause […].80-100% mortality in infected animals within 10 days of challenge of Cox A21, in phosphate buffered saline containing 1% heat inactivated fetal calf serum. Three hours later mice were treated orally (P.O.) with 0.2 ml of compound suspended in 0.5% hydroxypropyl methylcellulose (Methocel) or with 0.2 ml of 0.5% Methocel containing no compound. […] Mice were observed daily for 7-10 days post-challenge and deaths recorded. A modified Mantel-Haenzel combined chi-square procedure was used to determine significant difference between virus control and treated groups. Chi-square values greater than 3.84 are considered significant (95% confidence level) in this test.

[9] = tested on: Coxsackie A21 virus; assay: Continuous Oral Feeding test in mice challenged IP with Coxsackie A21 virus; type: in vivo; conditions: po, 0.06 % in diet, 240 h
Description: Some of the compounds were also tested in animals utilizing the following procedure, hereainafter referred to as the "Continuous Oral Feeding" test. Coxsackie A21 virus grown on HeLa cells was administered at a concentration that produces 80 to 100% deaths in mice weighing 8 to 12 grams within 10 days, when the mice are injected (IP) with 0.2 ml of virus preparation. Mice were placed on diets containing test compound dispersed in plain commercially available rodent mash chow at a concentration of 0.06% (weight percent) on day 0. On day 1 the mice were challenged with the virus preparation, 0.2 ml/mouse, (IP). Deaths in both control and experimental groups were recorded for the 10 days and the results analyzed by a chi-square (.chi.^2) test. Chi-square values greater than 3.84 indicate the compound is active (95% confidence level).

| SMILES | MCC [1] [µg/mL] | EC50 [2] [µg/mL] | EC50 [3] [µg/mL] | EC50 [4] [µg/mL] | EC50 [5] [µg/mL] | EC50 [6] [µg/mL] | EC50 [7] [µg/mL] | Single Oral Dose X^2 (chi-square, deaths vs virus control) [8] | Continuous Oral Feeding X^2 (chi-square, deaths vs control) [9] |
| --- | --- | --- | --- | --- | --- | --- | --- | --- | --- |
| CS(=O)(=O)c1ccc(Oc2ccc(Br)cc2)nc1 [Example 29, 2-(4-bromophenoxy)-5-(methylsulfonyl)pyridine] | 50 | 0.625 (≈ 1.9 µM) | 0.625 (≈ 1.9 µM) | 5 (≈ 15.2 µM) | 25 (≈ 76.2 µM) | 6.25 (≈ 19 µM) | 0.625 (≈ 1.9 µM) | 5.275 | 20.885 |
| CS(=O)(=O)c1ccc(Oc2ccc(C#N)cc2)nc1 [Example 30, 4-((5-(methylsulfonyl)-2-pyridinyl)oxy)benzonitrile] | > 100 | 50 (≈ 182 µM) | 50 (≈ 182 µM) | 6.25 (≈ 22.8 µM) | 50 (≈ 182 µM) | 25 (≈ 91.1 µM) | 25 (≈ 91.1 µM) | 30.960 | 24.144 |
